Two compounds from US20230158057A1, “COMPOSITIONS AND METHODS FOR THE TREATMENT OF PAIN” (Duke University, priority 2020, published 2023) can be followed below.

Assay [1] relates to DRG nociceptors. Kind of assay: Whole-cell patch clamp recordings in whole-mount DRGs ex vivo. It counts as cell-based, mouse. The note with it: PTX-treated Ifnar1-WT or Ifnar1-KO mice, ex vivo incubation 30 μM. Here is the method: Whole-cell patch clamp recordings in whole-mount DRGs ex vivo: To test the effects of anti-IFNβ neutralizing antibodies, naïve male and female mice were utilized. […] To perform whole-cell patch clamp recordings in whole-mount DRGs, L1-L5 DRGs were carefully isolated and placed in oxygenated ACSF. Using a stereoscope, peripheral and central DRG projections and connective tissue were dissected away. DRGs were lightly digested for 20 minutes using an enzymatic mixture consisting of 0.32 ml collagenase A (1 mg/mL) and Trypsin (0.25%). […] Following incubation, DRGs were transferred to a recording chamber, where neurons could be visualized using a 40× water-immersion objective on an Olympus BX51WI microscope. The recording chamber was continuously perfused (2-3 ml/min) with ACSF. The pipette solution contained 140 mM KC1, 2 mM MgCl2, 10 mM HEPES, 2 mM Mg-ATP at pH 7.4. The resistance of the glass pipettes was 8-10 MΩ. Data were acquired and analyzed using the pClamp10 (Axon Instruments) software.
(The patch-clamp technique gives a direct electrical read-out from membranes.)

The subject of assay [2] is rhesus macaques (Macaca mulatta). Kind of assay: Menthol gel-induced cold allodynia, cold-water tail-withdrawal assay in non-human primates. Format: in vivo. The protocol:
Behavioral testing in non-human primates: Five adult rhesus monkeys (Mucaca mulatta, 9.3-13.8 kg) were maintained in an AAALAC-approved facility at Wake Forest University School of Medicine in accordance with Wake Forest University IACUC regulations. Animals were individually housed in temperature- and humidity-controlled species-specific rooms maintained in a 12 h light/12 h dark cycle. All animals have been previously trained in the tail-withdrawal assay. All experimental procedures were conducted in accordance with the Guide for the Care and Use of Laboratory Animals standards adopted by the NIH. Drug infusion was through a previously implanted spinal catheter. Behavioral testing was performed by an experimenter who was blinded to the drug being administered. A cold-water tail-withdrawal assay was used to evaluate nociceptive responses to 16° C. water with a cut-off of 20 sec. 0.3 mL of 2% menthol gel (Millipore Sigma) was applied to the tail for 3 minutes to induce transient and reversible cold allodynia.

In assay [3] the test system is tumor-bearing femora. The assay is described as follows: Microcomputed tomography of tumor-bearing femurs. It counts as in vivo, mouse. The protocol:
Microcomputed tomography. Microcomputed tomography (MicroCT) analyses were performed on femurs from tumor inoculated mice or naïve mice using a VivaCT 80 scanner with the 55-kVp source (Scanco, Southeastern, Pa.) as previously described (Wang, C. et al. “NOTCH signaling in skeletal progenitors is critical for fracture repair.” The Journal of Clinical Investigation 126, 1471-1481 (2016); Cao, C. et al. “Increased Ca2+ signaling through CaV1.2 promotes bone formation and prevents estrogen deficiency-induced bone loss.” JCI Insight 2, (2017)). Quantification of microCT data was calculated for distal femurs of mice treated with vehicle or DMXAA. Parameters quantified included bone volume/total volume (BV/TV) and connectivity density (Conn.D) within a region of 100 slides and 200 slides proximal to the distal growth plate.

In assay [4] the test system is tumor-infiltrating lymphocytes (TILs). Kind of assay: Flow cytometry of tumor-infiltrating lymphocytes in bone marrow. Format: in vivo, mouse. The note with it: 24 h after second injection. The protocol:
Flow cytometry. For analysis of immune subsets present within the bone marrow tumor microenvironment, bone marrow was collected as previously described followed by removal of RBC cells using RBC lysis buffer (Sigma, R7757). Cells were subsequently washed with PBS and resuspended in 2% paraformaldehyde in PBS for 10 minutes. Fixed cells were washed several times with PBS, followed by incubation in blocking buffer (1% anti-mouse-CD16/CD32, 2.4 G2, 2% FBS, 5% NRS, 1% triton ×100 and 2% NMS in HBSS; BD Bioscience) for 1 h at room temperature. Cells were subsequently stained with IL-17-FITC (1:20, rat, Miltenyi Biotec, 130-102-262), CD-3 APC/cy7 (1:200, rat, Biolegend, 100221), CD-4 APC (1:200, rat, Biolegend, 100411), FoxP3-PE (1:20, human, Miltenyl Biotec, 130-111-678), CD8a-FITC (1:200, rat, Biolegend, 100705), and CD11b-PE(1:200, rat, Biolegend, 101207) in blocking buffer for 1 h at room temperature. After staining, cells were washed in PBS with EDTA. Flow cytometry events were acquired by a BD FACS Canto II flow cytometer using the BD FACS Diva 8 software (BD Bioscience). Data were analyzed using Cytobank software (https://www.cytobank.org/cytobank).
In general terms: A flow cytometer gives signals particle by particle.

The test system of assay [5] is PINP. Kind of assay: Serum PINP ELISA. It counts as in vivo, mouse. The note with it: d17. Here is the method:
ELISA. Mouse high-sensitivity IFN-α ELISA kit (42115-1) and IFN-β ELISA kit (42410-1) were purchased from PBL Assay Science. Mouse CTX-I ELISA kit (AC-06F1) and mouse PINP ELISA kit (AC-33F1) were purchased from Immunodiagnostic Systems. ELISA was performed using culture medium, serum, and bone marrow lysates. Serum was obtained from whole blood that was collected from a submandibular vein via facial vein puncture, coagulated for 30 minutes at room temperature, followed by centrifugation (2,000 ×g for 10 min, 4° C.) and collection of the supernatant (serum). Bone marrow was homogenized in a lysis buffer containing protease inhibitors at 4° C. for 30 minutes. ELISA was conducted in accordance with the manufacturer's instructions. A standard curve was performed for each experiment.
For orientation: In an ELISA, binding on a coated surface is turned into a signal by an enzyme label.

Entries after “also recorded” stand apart in the source; their conditions may differ.

For `Nc1ncnc2c1ncn2[C@@H]1O[C@@H]2COP(=O)([S-])O[C@@H]3[C@H](O)[C@@H](COP([O-])(=S)O[C@H]2[C@H]1O)O[C@H]3n1cnc2c(N)ncnc21.[Na+].[Na+]` (stereo partly drawn) [ADU-S100, (2′-5′)-[P(R)]-5′-O-[(R)-hydroxymercaptophosphinyl]-P-thioadenylyl-adenosine cyclic dinucleotide], in assay [1], the “action potential firing of DRG nociceptors” value is “dramatically reduced action potential firing in WT mice, and this effect was abolished in Ifnar1-deficient neurons”. In assay [2] (i.t. catheter), the “2% menthol gel-induced cold allodynia” value was “long-lasting and dose-dependent analgesia; also recorded: attenuated 2% menthol gel-induced cold allodynia in a dose-dependent manner”. For the same compound, in assay [2] (vs. 35 nmol in murine models), the “intrathecal dose producing analgesia in NHPs” value stood at 3 nmol.
For `Cc1ccc2c(=O)c3cccc(CC(=O)O)c3oc2c1C` [DMXAA, 2-(5,6-dimethyl-9-oxo-9H-xanthen-4-yl)acetic acid], in assay [3] (d11), the “cortical bone volume/total volume (BV/TV)” value is recorded as “increased cortical bone volume/total volume (BV/TV)” and the “trabecular bone connectivity density (Conn.D)” value is reported as “higher trabecular bone connectivity density (Conn.D)”. For the same compound, the “trabecular bone loss and cortical bone lesions (3D reconstruction)” value in assay [3] (d11 after tumor implantation) was “less bone cancer-induced trabecular bone loss and fewer cortical bone lesions”. For the same compound, in assay [4], the “proportion of CD4^+ T cells in bone marrow” value is on record as “without significantly changing the proportion of (CD11b^− CD3^+) CD4^+ T cells”, the “proportion of CD8^+ T cells in bone marrow” value was “significantly increased the proportion of (CD11b^− CD3^+) CD8^+ T cells” and the “proportion of T^reg cells in bone marrow” value is on record as “decreased the proportion of T^reg cells”. For the same compound, the “serum PINP levels” value in assay [5] is “had no effect on serum PINP levels”.
